Patent US6706738B2, “Substituted bicyclic heteroaryl compounds and their use as integrin antagonists” (Aventis Pharma Limited, priority 1999, dated 2004)

melting point: 195 to 196 °C (dec.)
Structure (SMILES): Cc1ccccc1Nc1nc2ccc(CC(=O)Nc3ccc(C(C)CC(=O)O)nc3)cc2o1 (racemic) [Example 1, (3RS)-3-{5-[2-(2-o-Tolylamino-benzoxazol-6-yl)-acetylamino]-pyrid-2-yl}-butyric acid]
